According to patent publication US10196403B2, “Compounds and compositions and uses thereof” (Sunovion Pharmaceuticals Inc., priority 2016, dated 2019):

Tested on: mice
Test: Neuropharmacological Assay (SmartCube)
Assay type: in vivo
Details: for minimal effective dose: Mus musculus, read-out: POTENCY (minimal effective dose, MED); for AD: ADHD (SmartCube probability) / AG: analgesic (SmartCube probability) / AX: anxiolytic (SmartCube probability) / CE: cognitive enhancer (SmartCube probability) / DP: anti-depressant (SmartCube probability) / MS: mood stabilizer (SmartCube probability) / PS: anti-psychotic (SmartCube probability) / SD: sedative hypnotic (SmartCube probability) / UN: uncharacterized CNS activity (SmartCube probability): mice, i.p. 15 min before test, most efficacious dose(s) of 3 doses
Procedure, shortened: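 Compounds in NMP/PEG/propylene glycol given i.p. 15 min before automated video-based behavioral testing, at 3 doses; behavioral signature compared with a reference-compound database to give probability per drug class, reported at most efficacious dose. MED = dose (mpk) giving ≥50% total activity; doses typically 0.3–30 mpk.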

[1] = MED = dose having 50% or more total activity in SmartCube

Compound	minimal effective dose [1] [mg/kg]	AD: ADHD (SmartCube probability)	AG: analgesic (SmartCube probability)	AX: anxiolytic (SmartCube probability)	CE: cognitive enhancer (SmartCube probability)	DP: anti-depressant (SmartCube probability)	MS: mood stabilizer (SmartCube probability)	PS: anti-psychotic (SmartCube probability)	SD: sedative hypnotic (SmartCube probability)	UN: uncharacterized CNS activity (SmartCube probability)	POTENCY (minimal effective dose, MED) [1]
NC[C@@H]1OCCc2cccc(F)c21 [Example 35, (R)-(8-fluoroisochroman-1-yl)methanamine]	< 3	++ (5%≤ ++ <25%)	++ (5%≤ ++ <25%)	++ (5%≤ ++ <25%)	++ (5%≤ ++ <25%)	++++ (50%≤ ++++)	+ (LOQ≤ + <5%)	++ (5%≤ ++ <25%)	++ (5%≤ ++ <25%)	++++ (50%≤ ++++)	
NC[C@H]1OCCc2ccc3c(c21)OCO3 [Example 7, (S)-(6,9-dihydro-7H-[1,3]dioxolo[4,5-h]isochromen-9-yl)methanamine]	< 3	++ (5%≤ ++ <25%)	+++ (25%≤ +++ <50%)	+++ (25%≤ +++ <50%)	++ (5%≤ ++ <25%)	++ (5%≤ ++ <25%)	++ (5%≤ ++ <25%)	++ (5%≤ ++ <25%)	+ (LOQ≤ + <5%)	++ (5%≤ ++ <25%)	
NC[C@@H]1OCCc2c(Cl)cccc21 [Example 67, (R)-(5-chloroisochroman-1-yl)methanamine]		+ (LOQ≤ + <5%)	+ (LOQ≤ + <5%)	++ (5%≤ ++ <25%)	+ (LOQ≤ + <5%)	++++ (50%≤ ++++)	+ (LOQ≤ + <5%)	++ (5%≤ ++ <25%)	+ (LOQ≤ + <5%)	+ (LOQ≤ + <5%)	A-B
CNC[C@H]1OCCc2c(F)ccc(F)c21 [Example 30, (S)-1-(5,8-difluoroisochroman-1-yl)-N-methylmethanamine]	3 to 10	+ (LOQ≤ + <5%)	++ (5%≤ ++ <25%)	++ (5%≤ ++ <25%)	++ (5%≤ ++ <25%)	++ (5%≤ ++ <25%)	+ (LOQ≤ + <5%)	++ (5%≤ ++ <25%)	++ (5%≤ ++ <25%)	+++ (25%≤ +++ <50%)	
CNC[C@H]1OCCCc2cccc(F)c21 [Example 60, (S)-1-(9-fluoro-1,3,4,5-tetrahydrobenzo[c]oxepin-1-yl)-N-methylmethanamine]	3 to 10	+ (LOQ≤ + <5%)	+ (LOQ≤ + <5%)	++ (5%≤ ++ <25%)	+ (LOQ≤ + <5%)	++ (5%≤ ++ <25%)	+ (LOQ≤ + <5%)	++ (5%≤ ++ <25%)	++++ (50%≤ ++++)	+++ (25%≤ +++ <50%)	
CNC[C@H]1OCCc2c(F)cccc21 [Example 18, (S)-1-(5-fluoroisochroman-1-yl)-N-methylmethanamine]	10 to 30	+ (LOQ≤ + <5%)	++ (5%≤ ++ <25%)	++ (5%≤ ++ <25%)	++ (5%≤ ++ <25%)	++ (5%≤ ++ <25%)	+ (LOQ≤ + <5%)	+ (LOQ≤ + <5%)	+ (LOQ≤ + <5%)	++ (5%≤ ++ <25%)	
CNC[C@H]1OCC(F)(F)c2ccccc21 [Example 27, (S)-1-(4,4-difluoroisochroman-1-yl)-N-methylmethanamine]	10 to 30	+ (LOQ≤ + <5%)	++ (5%≤ ++ <25%)	++ (5%≤ ++ <25%)	++ (5%≤ ++ <25%)	++ (5%≤ ++ <25%)	+ (LOQ≤ + <5%)	+ (LOQ≤ + <5%)	+ (LOQ≤ + <5%)	+++ (25%≤ +++ <50%)	
CNC[C@@H]1OCCc2c(Cl)cccc21 [Example 33, (R)-1-(5-chloroisochroman-1-yl)-N-methylmethanamine]	< 3	+ (LOQ≤ + <5%)	++ (5%≤ ++ <25%)	++ (5%≤ ++ <25%)	++ (5%≤ ++ <25%)	++++ (50%≤ ++++)	+ (LOQ≤ + <5%)	+ (LOQ≤ + <5%)	++ (5%≤ ++ <25%)	+++ (25%≤ +++ <50%)	
CNC[C@@H]1OCCc2c1ccc1c2OCO1 [Example 4, (R)-1-(8,9-dihydro-6H-[1,3]dioxolo[4,5-f]isochromen-6-yl)-N-methylmethanamine]	3 to 10	+ (LOQ≤ + <5%)	++ (5%≤ ++ <25%)	+ (LOQ≤ + <5%)	+ (LOQ≤ + <5%)	++++ (50%≤ ++++)	+ (LOQ≤ + <5%)	+ (LOQ≤ + <5%)	+ (LOQ≤ + <5%)	+ (LOQ≤ + <5%)	
CNC[C@H]1OCCc2c(C)cccc21 [Example 38, (S)-N-methyl-1-(5-methylisochroman-1-yl)methanamine]	< 3	+ (LOQ≤ + <5%)	++ (5%≤ ++ <25%)	++ (5%≤ ++ <25%)	+ (LOQ≤ + <5%)	++ (5%≤ ++ <25%)	+ (LOQ≤ + <5%)	++ (5%≤ ++ <25%)	++ (5%≤ ++ <25%)	+++ (25%≤ +++ <50%)	
NC[C@H]1OCCc2c1ccc1c2OCO1 [Example 11, (S)-(8,9-dihydro-6H-[1,3]dioxolo[4,5-f]isochromen-6-yl)methanamine]	3 to 10	++ (5%≤ ++ <25%)	+ (LOQ≤ + <5%)	+ (LOQ≤ + <5%)	+ (LOQ≤ + <5%)	++++ (50%≤ ++++)	+ (LOQ≤ + <5%)	+ (LOQ≤ + <5%)	+ (LOQ≤ + <5%)	+ (LOQ≤ + <5%)	
CNC[C@H]1OCCc2cccc(F)c21 [Example 25, (S)-1-(8-fluoroisochroman-1-yl)-N-methylmethanamine]	3 to 10	+ (LOQ≤ + <5%)	++ (5%≤ ++ <25%)	+ (LOQ≤ + <5%)	++ (5%≤ ++ <25%)	+++ (25%≤ +++ <50%)	+ (LOQ≤ + <5%)	++ (5%≤ ++ <25%)	++ (5%≤ ++ <25%)	+ (LOQ≤ + <5%)	
